From article PMC7072103, “Simultaneous Determination of 13 Constituents of Radix Polygoni Multiflori in Rat Plasma and Its Application in a Pharmacokinetic Study” (International Journal of Analytical Chemistry, 2020)
“Also recorded” adds a separate entry of the source. Like-named read-outs stand apart in the source and are kept apart here. Values belong to the compound of their own block, whether it stands above or below them.

Experiments:
[1] = Stability of the analytes in rat plasma and processed plasma samples; format: in vitro ADME; settings: for Stability, post-preparative: acetonitrile-precipitated plasma supernatant, 24 h at 6°C in autosampler; for Stability, long-term (–70 °C) / Stability, short-term / Stability, freeze–thaw (three cycles): rat plasma; for Stability, long-term (–70 °C): 3 months at −70°C; for Stability, short-term: 4 h at room temperature; for Stability, freeze–thaw (three cycles): −70°C to room temperature
Protocol: The stability of the 13 analytes in rat plasma were assessed by analyzing samples spiked 0.2, 2.7, and 58.3 ng/mL for emodin, aloe-emodin, questin, citreorosein, questinol, TG, CG, EG, PG; 0.6, 8.1, and 175 ng/mL for TSG; 1, 13.5, and 291.6 ng/mL for rhein, physcion; and 2, 27, and 583.2 ng/mL for chrysophanol, respectively, under four conditions: (1) short-term storage for 4 h at room temperature; (2) long-term storage for (3 months at −70°C; (3) three freeze-thaw cycles; and (4) posttreatment storage for 24 h at 6°C setting in UPLC autosampler. The concentrations obtained were compared with the nominal values of the spiked samples. The stability was calculated as the percent of the measured concentration to the initial concentration at time zero. The analytes were considered stable if the assay values were within the acceptable limit of accuracy (85.0∼115%).

[2] = Pharmacokinetic study in rats after oral administration of RPM extract (UPLC-MS/MS of plasma); format: in vivo, Sprague-Dawley rats; settings: for Latest plasma sample time at which the constituent was detected / Detection in rat plasma after oral RPM extract: RPM extract 36 g/kg oral; for Latest plasma sample time at which the constituent was detected: sampling up to 24 h; for Detection in rat plasma after oral RPM extract: real plasma samples
Protocol: The analysis was performed on an AB Sciex API 5500 Q Trap mass spectrometer (Toronto, Canada), interfaced with a Waters Acquity UPLC separation module. Empower 3.0 and Analyst 1.62 software were used to control UPLC and mass spectrometer, respectively.
Chromatographic separation was achieved on a waters HSS C18 column (100 × 2.1 mm, 1.8 μm, kept at 40°C) using a mobile phase containing 0.025% formic acid that consisted of solvent A (water) and solvent B (acetonitrile). The mobile phase was delivered at 0.3 mL/min, and a gradient program was used as follows: 0-1 min, held 5% to 25% solvent B; 1–3.5 min, linear gradient from 25% to 35% solvent B; 3.5–5 min, linear gradient from 35% to 40% solvent B; 5-6 min, linear gradient from 40% to 60% solvent B; 6-6.1 min, linear gradient from 60% to 95% solvent B; 6.1–8 min, linear gradient from 95% to 100% solvent B; and 8-9 min, held 5% solvent B.
The MS detection was set in positive multiple reaction monitoring (MRM) mode for the analytes and IS. The turbo spray temperature was maintained at 500°C. The nebulizer gas (gas 1), heater gas (gas 2), and curtain gas was set at 45, 50, and 45 psi, respectively. The interface heater was on. The precursor ion, corresponding product ion and dwell time along with declustering potential (DP), entrance potential (EP), collision energy (CE), and collision exit potential (CXP) for each compound were optimized with standard substance. The dwell time was 50 ms for all analytes. The EP and CXP were set at –10 V and −16 V, respectively.
Sample preparations were made using the protein precipitation process. 50 μL thawed plasma, 10 μL IS working solution (puerarin 10 μg/mL), and 150 μL acetonitrile were added to a 1.5 mL tube in that order. After vortexed for 5 min and centrifuged at 12,000 g for 5 min at 4°C, 150 μL of the supernatant was transferred and a 5 μL was injected into the UPLC-MS/MS instrument for analysis.
Male Sprague-Dawley rats (200–240 g) were obtained from Beijing Vital River Laboratory Animal Technology Co., Ltd. (Beijing, China) (SCXK 2016(jing)-0006). The animals were maintained in SPF animal room at temperature 22 ± 2°C, 60 ± 5% humidity, and 12/12 h day/night cycle. All procedures were approved by the Institutional Animal Ethics Committee and performed in accordance with the Regulations of Experiment Animal Administration issued by the State Committee of Science and Technology of China. RPM extract suspended in an equal volume of 5% CMC-Na solution and orally administered to the six rats at a single dose of 36 g/kg (dose calculated as grams of crude materials used to create the extract per kilogram of rat body weight). The dose was set at a subtoxic level to investigate the pharmacokinetic profiles of the constituents of RPM and were approximately 72 times the upper dose (6 g/day) of human recommended by the 2015 edition of Chinese Pharmacopoeia (converted to rat dose based on body surface area conversion). The calculated doses of compounds based on the contents in the extract were 7.38, 14.8, 13.7, 8.82, 15.5, 11.2, 55.8, 1.08, 1170, 11.3, 25.7, 131.4, and 13.0 mg/kg for chrysophanol, emodin, aloe-emodin, rhein, physcion, questin, citreorosein, questinol, TSG, TG, CG, EG, and PG, respectively. Rats were fasted for at least 12 h before the experiments and had free access to water. Blood samples (∼0.25 mL) were collected from the retinal venous plexus into heparinized 1.5 mL polythene tubes before administration and 5, 15, and 30 min and 1, 2, 4, 6, 8, 12, and 24 h after dosing RPM extract at dose of 36 g/kg. The plasma was immediately separated from blood samples and stored frozen at −70°C until analysis.
The pharmacokinetic parameters were calculated using the pharmacokinetic software Phoenix® WinNonlin®, version 7.0 (Scientific Consulting Inc., Apex, NC, USA). The peak plasma concentration (Cmax) and time to reach Cmax (Tmax) were read directly from the experimental data. […]

[3] = high QC (58.3 ng/mL; TSG 175; rhein, physcion 292; chrysophanol 583)
[4] = low QC (0.2 ng/mL; TSG 0.6; rhein, physcion 1; chrysophanol 2)
[5] = middle QC (2.7 ng/mL; TSG 8.1; rhein, physcion 13.5; chrysophanol 27)
[6] = male, Sprague-Dawley, in vivo, rat plasma, single oral dose of RPM extract 36 g/kg, n = 6, mean ± SD, read-out: AUC0–∞
[7] = male, Sprague-Dawley, in vivo, rat plasma, single oral dose of RPM extract 36 g/kg, n = 6, mean ± SD, read-out: Cmax
[8] = male, Sprague-Dawley, in vivo, rat plasma, single oral dose of RPM extract 36 g/kg, n = 6, mean ± SD, read-out: MRT0–∞
[9] = male, Sprague-Dawley, in vivo, rat plasma, single oral dose of RPM extract 36 g/kg, n = 6, mean ± SD, read-out: Tmax
[10] = male, Sprague-Dawley, in vivo, rat plasma, single oral dose of RPM extract 36 g/kg, n = 6, mean ± SD, read-out: t1/2 (converted)
[11] = male, Sprague-Dawley, rat, in vivo, po, 36 g/kg, rat plasma, single oral dose of RPM extract 36 g/kg, n = 6, mean ± SD, read-out: AUC0–t
[12] = male, Sprague-Dawley, rat, plasma, po, 36 g/kg, rat plasma, single oral dose of RPM extract 36 g/kg, n = 6, mean ± SD, read-out: AUC0–t
[13] = male, Sprague-Dawley, rat plasma, single oral dose of RPM extract 36 g/kg, n = 6, mean ± SD, read-out: AUC0–∞
[14] = male, Sprague-Dawley, rat plasma, single oral dose of RPM extract 36 g/kg, n = 6, mean ± SD, read-out: Cmax
[15] = male, Sprague-Dawley, rat plasma, single oral dose of RPM extract 36 g/kg, n = 6, mean ± SD, read-out: MRT0–∞
[16] = male, Sprague-Dawley, rat plasma, single oral dose of RPM extract 36 g/kg, n = 6, mean ± SD, read-out: Tmax
[17] = male, Sprague-Dawley, rat plasma, single oral dose of RPM extract 36 g/kg, n = 6, mean ± SD, read-out: t1/2 (converted)
[18] = male, Sprague-Dawley, rat, in vivo, po, 36 g/kg
[19] = rat plasma, single oral dose of RPM extract 36 g/kg, n = 6, mean ± SD

SMILES: O=C1c2cccc(O)c2C(=O)c2c(O)cc(CO)cc21 [Aloe-emodin, aloe-emodin]
Stability, post-preparative [1, 3]: 92.6% | Stability, post-preparative [1, 4]: 96.4% | Stability, post-preparative [1, 5]: 102% | Stability, long-term (–70 °C) [1, 3]: 102% | Stability, long-term (–70 °C) [1, 4]: 103% | Stability, long-term (–70 °C) [1, 5]: 98.4% | Stability, short-term [1, 3]: 104% | Stability, short-term [1, 4]: 105% | Stability, short-term [1, 5]: 105% | Stability, freeze–thaw (three cycles) [1, 3]: 101% | Stability, freeze–thaw (three cycles) [1, 4]: 99% | Stability, freeze–thaw (three cycles) [1, 5]: 97.2% | Latest plasma sample time at which the constituent was detected [2]: ≤ 12 h | AUC(0-inf) [2, 6]: 0.00846 ± 0.00344 µg·h/mL | Cmax [2, 7]: 0.0113 ± 0.0031 µg/mL | MRT inf [2, 8]: 3.17 ± 1.54 h | Tmax [2, 9]: 0.22 ± 0.07 h | half-life [2, 10]: 3.44 ± 1.4 h | AUC(0-t) [2, 11]: 0.00728 ± 0.00325 µg·h/mL

Latest plasma sample time at which the constituent was detected [2]: ≤ 6 h | AUC(0-t) [2, 12]: 0.00428 ± 0.00164 µg·h/mL | AUC(0-inf) [2, 13]: 0.0103 ± 0.00187 µg·h/mL | Cmax [2, 14]: 0.0019 ± 0.00056 µg/mL | MRT inf [2, 15]: 6.76 ± 2.06 h | Tmax [2, 16]: 2.22 ± 1.76 h | half-life [2, 17]: 3.18 ± 0.62 h
SMILES: Cc1cc(O)c2c(c1)C(=O)c1cccc(O)c1C2=O [Chrysophanol, chrysophanol]

Relative bioavailability versus emodin (AUC0–t normalized by molecular weight and dose) ([2]; male, Sprague-Dawley, rat, in vivo, po): 15.8% | AUC0–t [2, 18]: 0.131 ± 0.0969 µg·h/mL | AUC0–t relative to that of emodin [2, 18]: 6.0 fold | AUC(0-inf) [2, 18]: 0.134 ± 0.0964 µg·h/mL | Cmax [2, 18]: 0.149 ± 0.147 µg/mL | MRT inf [2, 18]: 5.32 ± 1.85 h | Tmax [2, 18]: 0.19 ± 0.09 h | half-life [2, 18]: 3.97 ± 1.31 h | AUC(0-t) ([2]; male, Sprague-Dawley, rat, in vivo, po, 36 g/kg, AUC0–t): 0.134 ± 0.0964 µg·h/mL
SMILES: O=C1c2cc(O)cc(O)c2C(=O)c2c(O)cc(CO)cc21 [Citreorosein, 1,3,8-trihydroxy-6-(hydroxymethyl)anthracene-9,10-dione]

SMILES: Cc1cc(O)c2c(c1)C(=O)c1cc(O)cc(O)c1C2=O [Emodin, 1,3,8-trihydroxy-6-methylanthracene-9,10-dione]
Stability, post-preparative [1, 3]: 98.1% | Stability, post-preparative [1, 4]: 101% | Stability, post-preparative [1, 5]: 103% | Stability, long-term (–70 °C) [1, 3]: 101% | Stability, long-term (–70 °C) [1, 4]: 100% | Stability, long-term (–70 °C) [1, 5]: 102% | Stability, short-term [1, 3]: 106% | Stability, short-term [1, 4]: 93.6% | Stability, short-term [1, 5]: 105% | Stability, freeze–thaw (three cycles) [1, 3]: 104% | Stability, freeze–thaw (three cycles) [1, 4]: 102% | Stability, freeze–thaw (three cycles) [1, 5]: 104% | AUC(0-inf) [2, 6]: 0.801 ± 0.233 µg·h/mL | Cmax [2, 7]: 0.175 ± 0.0338 µg/mL | MRT inf [2, 8]: 11.8 ± 5.27 h | Tmax [2, 9]: 0.19 ± 0.09 h | half-life [2, 10]: 8.37 ± 4.17 h | AUC(0-t) [2, 11]: 0.801 ± 0.187 µg·h/mL | AUC0–t [2, 19]: 0.686 ± 0.187 µg·h/mL

Detection in rat plasma after oral RPM extract [2]: not detected | Detection in rat plasma after oral RPM extract ([2]; listed as physcion): too low to be detected
SMILES: COc1cc(O)c2c(c1)C(=O)c1cc(C)cc(O)c1C2=O [Physcion, physcion]

SMILES: COc1cc(O)cc2c1C(=O)c1c(O)cc(C)cc1C2=O [Questin, questin]
Detection in rat plasma after oral RPM extract [2]: not detected; also recorded: too low to be detected

Latest plasma sample time at which the constituent was detected [2]: ≤ 2 h | AUC(0-t) [2, 12]: 0.00111 ± 0.00063 µg·h/mL | AUC(0-inf) [2, 13]: 0.00231 ± 0.00051 µg·h/mL | Cmax [2, 14]: 0.00106 ± 0.00024 µg/mL | MRT inf [2, 15]: 1.83 ± 0.56 h | Tmax [2, 16]: 0.46 ± 0.1 h | half-life [2, 17]: 1.18 ± 0.39 h
SMILES: O=C(O)c1cc(O)c2c(c1)C(=O)c1cccc(O)c1C2=O [Rhein, rhein]

AUC(0-t) [2, 12]: 0.0212 ± 0.00738 µg·h/mL | AUC(0-inf) [2, 13]: 0.0217 ± 0.00748 µg·h/mL | Cmax [2, 14]: 0.0187 ± 0.00406 µg/mL | MRT inf [2, 15]: 2.1 ± 0.24 h | Tmax [2, 16]: 0.11 ± 0.07 h | half-life [2, 17]: 2 ± 0.63 h
SMILES: COc1cc(O[C@@H]2O[C@H](CO)[C@@H](O)[C@H](O)[C@H]2O)c2c(O)c(C(C)=O)c(C)cc2c1 [TG, torachrysone-8-O-glucoside]

AUC(0-t) [2, 12]: 1.87 ± 0.554 µg·h/mL | AUC(0-inf) [2, 13]: 1.87 ± 0.581 µg·h/mL | Cmax [2, 14]: 1.74 ± 0.401 µg/mL | MRT inf [2, 15]: 3.66 ± 0.97 h | Tmax [2, 16]: 0.33 ± 0.13 h | half-life [2, 17]: 5.98 ± 2.62 h | AUC0–t [2, 19]: 1.811 ± 0.554 µg·h/mL
SMILES: OC[C@H]1O[C@@H](Oc2c(O)cc(O)cc2/C=C/c2ccc(O)cc2)[C@H](O)[C@@H](O)[C@@H]1O [TSG, 2,3,5,4′-tetrahydroxystilbene-2-O-β-D-glucoside]
